For the test, the target named is T1, hTLR7 (Homo sapiens, UniProt Q9NYK1).
T1 construct: host or cells: HEK293
T1 sequence (Q9NYK1 27-1049): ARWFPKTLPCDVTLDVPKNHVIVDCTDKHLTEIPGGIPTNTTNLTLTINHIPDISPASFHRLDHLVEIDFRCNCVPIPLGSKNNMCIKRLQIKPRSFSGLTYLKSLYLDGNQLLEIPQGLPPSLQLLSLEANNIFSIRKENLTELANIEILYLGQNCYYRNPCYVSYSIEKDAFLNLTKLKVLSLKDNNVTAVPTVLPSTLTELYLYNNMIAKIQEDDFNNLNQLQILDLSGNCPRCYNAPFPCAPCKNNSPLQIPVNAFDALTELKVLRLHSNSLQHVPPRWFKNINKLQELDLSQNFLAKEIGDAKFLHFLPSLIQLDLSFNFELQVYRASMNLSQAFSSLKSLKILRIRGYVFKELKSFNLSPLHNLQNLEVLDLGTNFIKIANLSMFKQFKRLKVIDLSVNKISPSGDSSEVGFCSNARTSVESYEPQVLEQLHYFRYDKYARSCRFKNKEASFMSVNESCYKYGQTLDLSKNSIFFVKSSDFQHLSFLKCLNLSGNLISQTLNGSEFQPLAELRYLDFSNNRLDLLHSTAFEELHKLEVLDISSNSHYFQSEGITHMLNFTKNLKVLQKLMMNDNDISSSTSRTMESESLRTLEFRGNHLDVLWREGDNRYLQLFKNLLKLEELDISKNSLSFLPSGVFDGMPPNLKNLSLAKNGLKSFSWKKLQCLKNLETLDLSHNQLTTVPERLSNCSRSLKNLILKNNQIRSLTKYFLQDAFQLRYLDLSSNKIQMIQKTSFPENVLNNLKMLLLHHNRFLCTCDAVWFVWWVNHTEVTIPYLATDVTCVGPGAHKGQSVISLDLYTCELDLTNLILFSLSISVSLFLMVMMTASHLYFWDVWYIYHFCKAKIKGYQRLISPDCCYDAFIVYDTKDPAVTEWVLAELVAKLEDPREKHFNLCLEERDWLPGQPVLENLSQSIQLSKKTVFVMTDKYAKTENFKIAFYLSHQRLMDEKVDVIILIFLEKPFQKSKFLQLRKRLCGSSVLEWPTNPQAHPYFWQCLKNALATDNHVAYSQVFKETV
The experiment in a line: TLR7 agonist activity, HEK293 hTLR7 SEAP reporter assay. The test is classed as cell-based. Conditions: for EC50: HEK293 cotransfected with hTLR7 and inducible SEAP reporter gene, 24 h treatment, average ± SD of three independent replicates, n.a. = not active; for loss of activity/potency on TLR7 relative to parent compound 21a / plateau / maximum response (efficacy): HEK293-hTLR7 SEAP; for loss of activity/potency on TLR7 relative to parent compound 21a: EC50 compared with 21a; for plateau / maximum response (efficacy): less than twofold increase in maximum response. As to the method: TLR7 agonist activities were determined using the HEK293 cell line, which was cotransfected with the hTLR7 gene and an inducible SEAP reporter gene (InvivoGen, San Diego, California, USA) as described previously.[34] Briefly, cells were seeded in 96-well plates (3 × 10^4 cells/well) and incubated at 5% CO2 and 37 °C. After 24 h, the cells were treated with the solutions of the compounds in DMSO. Imiquimod was used as a PC. The cells were incubated again for 24 h under the same conditions. The activity of SEAP in the supernatant of the cells was measured using the QUANTI-Blue reagent (InvivoGen, San Diego, California, USA), according to the manufacturer's protocol. EC50 values were determined using GraphPad Prism 9.2.0. software (San Diego, California, USA) using the nonlinear regression curve fit and four-parameter logistic equation. All experiments were performed in three independent biological replicates. Values are given as averages from the independent measurements with standard deviations calculated.

SMILES strings stand for the structures. Where two headings read alike, the source gives them in different places. Bounds are passed on as bounds.

As to `COC1CCN(c2nc(C(F)(F)F)nc3onc(-c4ccc(F)cc4)c23)C1` (stereo not shown) [Compound 21t, 3-(4-Fluorophenyl)-4-(3-methoxypyrrolidin-1-yl)-6-(trifluoromethyl)isoxazolo[5,4-d]pyrimidine], the EC50 (in general, the concentration at which the effect is half-maximal) (read-out: EC50) was more than 150 µM.

For `CC1(C)CCCN(c2nc(C(F)(F)F)nc3onc(-c4ccc(F)cc4)c23)C1` [Compound 21o, 4-(3,3-Dimethylpiperidin-1-yl)-3-(4-fluorophenyl)-6-(trifluoromethyl)isoxazolo[5,4-d]pyrimidine], the EC50 result was “slightly less potent”. Also, where the note is “read-out: EC50”, the EC50 is 24.5 ± 1.6 µM.

With `CC1CCCCN1c1nc(C(F)(F)F)nc2onc(-c3ccc(F)cc3)c12` (stereo not shown) [Compound 21e, 3-(4-Fluorophenyl)-4-(2-methylpiperidin-1-yl)-6-(trifluoromethyl)isoxazolo[5,4-d]pyrimidine], the “loss of activity/potency on TLR7 relative to parent compound 21a” value was “Approximately 10 fold” and the “plateau / maximum response (efficacy)” value is “low plateau response”. Further, the EC50 (read-out: EC50) was 63.3 ± 9.8 µM.

As for `CN1CCN(c2nc(C(F)(F)F)nc3onc(-c4ccc(F)cc4)c23)CC1` [Compound 21j, 3-(4-Fluorophenyl)-4-(4-methylpiperazin-1-yl)-6-(trifluoromethyl)isoxazolo[5,4-d]pyrimidine], the EC50 result is reported as “lacked activity”. For the same molecule, the EC50 (read-out: EC50) is more than 150 µM.

`Fc1ccc(-c2noc3nc(C(F)(F)F)nc(NC4CC4)c23)cc1` [Compound 21c, N-Cyclopropyl-3-(4-fluorophenyl)-6-(trifluoromethyl)isoxazolo[5,4-d]pyrimidin-4-amine]: the EC50 entry is “inactive”.

On to `CC1CCCN(c2nc(C(F)(F)F)nc3onc(-c4ccc(F)c(Br)c4)c23)C1` (stereo not shown) [Compound 22, 3-(3-Bromo-4-fluorophenyl)-4-(3-methylpiperidin-1-yl)-6-(trifluoromethyl)isoxazolo[5,4-d]pyrimidine], for which, under “read-out: EC50”, the EC50 turned out to be 16.4 ± 0.1 µM.

With `CC1CCN(c2nc(C(F)(F)F)nc3onc(-c4ccc(F)cc4)c23)CC1` [Compound 21f, 3-(4-Fluorophenyl)-4-(4-methylpiperidin-1-yl)-6-(trifluoromethyl)isoxazolo[5,4-d]pyrimidine], the “loss of activity/potency on TLR7 relative to parent compound 21a” value was “Approximately 10 fold” and the “plateau / maximum response (efficacy)” value is given as “low plateau response”. Besides, the EC50 (read-out: EC50) was 68 ± 8.1 µM.

`CC1CCCN(c2nc(C(F)(F)F)nc3onc(-c4ccc(Cl)cc4)c23)C1` (stereo not shown) [Compound 15a, 3-(4-Chlorophenyl)-4-(3-methylpiperidin-1-yl)-6-(trifluoromethyl)isoxazolo[5,4-d]pyrimidine]: where the note is “read-out: EC50”, the EC50 was determined as 21.4 ± 2.8 µM.

On to `CC(C)CNc1nc(C(F)(F)F)nc2onc(-c3cccc([N+](=O)[O-])c3)c12` [Compound 19b, N-Isobutyl-3-(3-nitrophenyl)-6-(trifluoromethyl)isoxazolo[5,4-d]pyrimidin-4-amine], for which the EC50 entry is listed as “did not offer any change in activity”.

Regarding `CC1CCCC(c2nc(C(F)(F)F)nc3onc(-c4ccc(F)cc4)c23)C1` (stereo not shown) [Compound 21y, 3-(4-Fluorophenyl)-4-(3-methylcyclohexyl)-6-(trifluoromethyl)isoxazolo[5,4-d]pyrimidine], the “plateau / maximum response (efficacy)” value was “low plateau response” and the EC50 entry is “retained its activity”. Further, for the setting “read-out: EC50”, the EC50 is 15.9 ± 0.9 µM.

Regarding `CC1CN(c2nc(C(F)(F)F)nc3onc(-c4ccc(F)cc4)c23)CCO1` (stereo not shown) [Compound 21g, 3-(4-Fluorophenyl)-4-(2-methylmorpholino)-6-(trifluoromethyl)isoxazolo[5,4-d]pyrimidine], the “plateau / maximum response (efficacy)” value was “low plateau response” and the EC50 result is “retained the potency”. Besides, the EC50 (read-out: EC50) was determined as 11 ± 0.1 µM.

With `CC(C)C1CCCN(c2nc(C(F)(F)F)nc3onc(-c4ccc(F)cc4)c23)C1` (stereo not shown) [Compound 21q, 3-(4-Fluorophenyl)-4-(3-isopropylpiperidin-1-yl)-6-(trifluoromethyl)isoxazolo[5,4-d]pyrimidine], the “loss of activity/potency on TLR7 relative to parent compound 21a” value is reported as “Approximately 10 fold”. For the same molecule, for the setting “read-out: EC50”, the half-maximal effective concentration (EC50) was 81.1 ± 7 µM.

On to `Fc1ccc(-c2noc3nc(C(F)(F)F)nc(N4CCCC4)c23)cc1` [Compound 21v, 3-(4-Fluorophenyl)-4-(pyrrolidin-1-yl)-6-(trifluoromethyl)isoxazolo[5,4-d]pyrimidine], for which the EC50 (read-out: EC50) is more than 150 µM.

Consider `CC1CCCN(c2nc(C(F)(F)F)nc3onc(-c4cccc([N+](=O)[O-])c4)c23)C1` (stereo not shown) [Compound 19a, 4-(3-Methylpiperidin-1-yl)-3-(3-nitrophenyl)-6-(trifluoromethyl)isoxazolo[5,4-d]pyrimidine], for which the EC50 entry is given as “did not offer any change in activity”.

On to `CC1CCCN(c2nc(C(F)(F)F)nc3onc(Cc4ccc(F)c(F)c4)c23)C1` (stereo not shown) [Compound 23a, 3-(3,4-Difluorobenzyl)-4-(3-methylpiperidin-1-yl)-6-(trifluoromethyl)isoxazolo[5,4-d]pyrimidine], for which the EC50 (read-out: EC50) was found to be 19.9 ± 3.1 µM.

Consider `CC1CN(c2nc(C(F)(F)F)nc3onc(-c4ccc(F)cc4)c23)CCN1` (stereo not shown) [Compound 21h, 3-(4-Fluorophenyl)-4-(3-methylpiperazin-1-yl)-6-(trifluoromethyl)isoxazolo[5,4-d]pyrimidine], for which the EC50 result is “lacked activity”.

Regarding `Fc1ccc(-c2noc3nc(C(F)(F)F)nc(N4CCCC5(CC5)C4)c23)cc1` [Compound 21p, 3-(4-Fluorophenyl)-4-(5-azaspiro[2.5]octan-5-yl)-6-(trifluoromethyl)isoxazolo[5,4-d]pyrimidine], the EC50 result is “slightly less potent”. In addition, the EC50 (read-out: EC50) was found to be 17.5 ± 3 µM.

For the molecule `CC1CCCN(c2nc(C(F)(F)F)nc3onc(-c4ccc(C(F)(F)F)cc4)c23)C1` (stereo not shown) [Compound 16a, 4-(3-Methylpiperidin-1-yl)-6-(trifluoromethyl)-3-(4-(trifluoromethyl)phenyl)isoxazolo[5,4-d]pyrimidine], the EC50 (read-out: EC50) is more than 150 µM.

As to `CC(C)CNc1nc(C(F)(F)F)nc2onc(-c3ccc(F)cc3)c12` [Compound 21b, 3-(4-Fluorophenyl)-N-isobutyl-6-(trifluoromethyl)isoxazolo[5,4-d]pyrimidin-4-amine], the EC50 entry is “no activity observed”.

As to `CC(C)CNc1nc(C(F)(F)F)nc2onc(-c3ccccc3)c12` [Compound 14b, N-Isobutyl-3-phenyl-6-(trifluoromethyl)isoxazolo[5,4-d]pyrimidin-4-amine], the EC50 entry was “inactive”.

On to `CC1CCCN(c2nc(C(F)(F)F)nc3onc(-c4ccccc4)c23)C1` (stereo not shown) [Compound 14a, 4-(3-Methylpiperidin-1-yl)-3-phenyl-6-(trifluoromethyl)isoxazolo[5,4-d]pyrimidine], for which the EC50 result was “inactive”.

As to `CC(C)CNc1nc(C(F)(F)F)nc2onc(-c3ccc(Cl)cc3)c12` [Compound 15b, 3-(4-Chlorophenyl)-N-isobutyl-6-(trifluoromethyl)isoxazolo[5,4-d]pyrimidin-4-amine], the EC50 entry is listed as “agonist activity was lost”.

The values above are taken from publication PMC10795023, “Structural Optimization and Biological Evaluation of Isoxazolo[5,4-d]pyrimidines as Selective Toll-Like Receptor 7 Agonists” (ACS Omega, 2024).
